Measurements: publication PMC7542481, “Synthesis of Amino Acid Schiff Base Nickel (II) Complexes as Potential Anticancer Drugs In Vitro” (Bioinorganic Chemistry and Applications, 2020)

Tests used:
breast cancer MCF-7 = assay: MTT cytotoxicity assay, MCF-7; type: cell-based, human; conditions: treatment 48 h
Experimental: (§1) 3-(4,5-Dimethylthiazol-2-yl)-2, 5-diphenyltetrazolium bromide (MTT) method was used to assay the cytotoxicity in vitro. Complexes 1–3, ligands (L1, L2, and L3), Ni (CH3COO)2, and cisplatin were dissolved in DMSO at the concentration of 20 mM as a stock solution for subsequent testing. Four different cancer cell lines (MCF-7, SGC-7901, Eca-109, and HepG2) and one normal cell line (HSF) were seeded in 96-well and cultured at 37 °C in 5% CO2. After 24 h, the medium was replaced by different concentrations of complex and incubated for 48 h. 10 μL MTT dye (5 mg/mL) was added to each well and incubated for another 4 h. After that, the medium was removed and DMSO (100 μL) was added to solubilize the MTT formazan. A microplate reader (Bio-Rad iMark™) was used to measure the OD value of each well at a wavelength of 490 nm. Each experiment was repeated at least three times, and GraphPad Prism 5.0 was used to analyze the IC50 values.

gastric cancer SGC-7901 = assay: MTT cytotoxicity assay, SGC-7901; type: cell-based, human; conditions: treatment 48 h
Experimental: as §1

[1] = system: hepatocellular carcinoma HepG2; assay: MTT cytotoxicity assay, HepG2; type: cell-based, human; conditions: treatment 48 h
Experimental: as §1

[2] = system: esophageal cancer Eca-109; assay: MTT cytotoxicity assay, Eca-109; type: cell-based, human; conditions: treatment 48 h
Experimental: as §1

normal human cells HSF = assay: MTT cytotoxicity assay, HSF; type: cell-based; conditions: treatment 48 h
Experimental: as §1

Eca-109 cells [3] = assay: Autophagy assay, MDC staining; type: cell-based, human; conditions: Eca-109, 20 μM and 40 μM, 24 h, compared to the control group
Experimental: Eca-109 cells were seeded in 6-well plates and incubated at 37 °C in 5% CO2 for 24 h. Then, the medium was replaced with different concentrations of complex 2 for another 24 h. After that, the medium was removed and the cells were washed twice with ice-cold PBS. Then, the cells were stained with MDC (monodansylcadaverine) solution (50 μM) for 15 min, and the data were obtained by flow cytometry (BD FACS Aria III).

LC3B-II = assay: Western blot assay, LC3B-II; type: cell-based, human; conditions: Eca-109, 24 h, concentration-dependent
Experimental: (§2) After incubation with different concentrations of complex 2, cells were harvested in a radioimmunoprecipitation assay (RIPA) buffer with protease inhibitors and phosphatase inhibitors. BCA Protein Assay Kit was used to determine the protein concentration. Then, the expression levels of proteins associated with Bcl-2 family and autophagy were measured by Western blot assay.

Eca-109 cells [4] = assay: AO/EB double staining, fluorescence microscopy; type: cell-based, human; conditions: Eca-109, 20 μM and 40 μM, 24 h
Experimental: AO/EB double staining was used to observe the changes in apoptotic cells. Eca-109 cells were cultured in a 6-well plate for 24 h. Then, cells were treated with different concentrations of complex 2 for another 24 h. After that, cells were washed twice with ice-cold PBS, stained with 100 μg/mL AO/EB for 10 minutes, and photographed by fluorescence microscopy (Nikon Eclipse Ti–E, Nikon Instruments Inc., Japan).

Eca-109 cells [5] = assay: Annexin V-PE/7-AAD staining apoptosis assay by flow cytometry (with or without NAC or 3-MA pretreatment); type: cell-based, human; conditions: for percentage of apoptotic cells: 24 h, control 7.30%
Experimental: N-acetyl-L-cysteine (NAC), as a ROS scavenger, was added in a medium for 1 h before the addition of complex 2 to examine the effect of ROS on cell viability. The percentage of apoptotic cells was detected by Annexin V-PE/7-AAD staining assay after complex 2 treatment with or without NAC.
Different stages of apoptosis induced by complex 2 were determined by Annexin V-PE and 7-AAD staining according to the manufacture's protocol for the Annexin V Apoptosis Detection Kit (BD, Bioscience). Eca-109 cells were seeded in a 6-well plate with a density of 2 × 10^5 cells per well and cultured at 37°C in 5% CO2 for 24 h. Then, different concentrations of complex 2 were added into the above well and incubated for another 24 h. The cells were resuspended in binding buffer, stained with 5 μL Annexin V-PE and 5 μL 7-AAD at room temperature for 15 min, and analyzed using the flow cytometer (BD FACS Aria III).
3-MA, as an autophagic inhibitor, was added in a medium for 1 h before the addition of complex 2 to examine the effect of autophagy on cell viability. The percentage of apoptotic cells was detected by Annexin V-PE/7-AAD staining assay after complex 2 treatment with or without 3-MA.

Eca-109 cells [6] = assay: Cell cycle arrest assay, PI staining, flow cytometry; type: cell-based, human; conditions: for percentage of cells in S phase / percentage in the cell at the G2/M phase / percentage in the cell at the G0/G1 phase: 24 h; for percentage in the cell at the G2/M phase: control 6.35%; for percentage in the cell at the G0/G1 phase: control 63.82%
Experimental: After treatment with different concentrations of complex 2, the cells were collected and fixed with 70% ethanol for the night. Then, the cells were incubated in 500 μL PBS containing Triton X-100 (0.1% v/v), RNase A (0.2 mg/mL), and propidium iodide (PI, 0.02 mg/mL) for 15 min. Then, the cells were analyzed by flow cytometry (BD FACS Aria III).

Eca-109 cells [7] = assay: Intracellular ROS level, DCFH-DA probe; type: cell-based, human; conditions: Eca-109, 20 μM and 40 μM, 24 h
Experimental: Eca-109 cells were seeded into a 6-well plate at a density of 2 × 10^5 cells per well and incubated for 24 h. Then, the medium was replaced and incubated with different concentrations of complex 2 for another 24 h. After that, cells were washed twice with ice-cold PBS, stained with 10 μM DCFH-DA for 30 minutes, and photographed by fluorescence microscopy (Nikon Eclipse Ti–E, Nikon Instruments Inc., Japan).

Eca-109 cells [8] = assay: Hoechst 33342 staining, fluorescence microscopy; type: cell-based, human; conditions: Eca-109, 20 μM and 40 μM, 24 h
Experimental: With the density of 2 × 10^5 cells per well, Eca-109 cells were cultured in a 6-well plate for 24 h. After that, the medium was replaced by different concentrations of complex 2 and incubated for another 24 h. Then, cells were washed twice with ice-cold PBS, stained with 10 μg/mL Hoechst 33342 for 15 minutes, and photographed by fluorescence microscopy (Nikon Eclipse Ti–E, Nikon Instruments Inc., Japan).

Eca-109 cells [9] = assay: Mitochondrial membrane potential by JC-1 staining, flow cytometry; type: cell-based, human; conditions: 24 h, control 4.69%
Experimental: After being treated with different concentrations of complex 2, the cells were collected and incubated in 500 μL PBS containing 10 μg/mL JC-1 for 20 min at 37°C in the dark. Then, the cells were resuspended in PBS and analyzed by flow cytometry (BD FACS Aria III).

p62 = assay: Western blot assay, p62; type: cell-based, human; conditions: Eca-109, 24 h, concentration-dependent
Experimental: as §2

Bcl-2 = assay: Western blot assay, Bcl-2; type: cell-based, human; conditions: Eca-109, 24 h, concentration-dependent
Experimental: as §2

Bax = assay: Western blot assay, Bax; type: cell-based, human; conditions: Eca-109, 24 h, concentration-dependent
Experimental: as §2

Beclin-1 = assay: Western blot assay, Beclin-1; type: cell-based, human; conditions: Eca-109, 24 h, concentration-dependent
Experimental: as §2

Bcl-xL = assay: Western blot assay, Bcl-xL; type: cell-based, human; conditions: Eca-109, 24 h, concentration-dependent
Experimental: as §2

Bad = assay: Western blot assay, Bad; type: cell-based, human; conditions: Eca-109, 24 h, concentration-dependent
Experimental: as §2

## N.N.[Cl][Pt][Cl] [Cisplatin, reference compound]
Breast cancer MCF-7
  IC50: 12.3 ± 0.75 µM
Gastric cancer SGC-7901
  IC50: 11.7 ± 1.45 µM
[1]
  IC50: 13.9 ± 0.58 µM
[2]
  IC50: 11.9 ± 0.19 µM
Normal human cells HSF
  IC50: 17.1 ± 1.31 µM

## O=C1[O][Ni][O]c2ccccc2C=N[C@@H]1Cc1c[nH]c2ccccc12.c1cnc2c(c1)ccc1cccnc12 [Complex 1, [Ni (Trp-sal) (phen) (CH3OH)]]
Breast cancer MCF-7
  IC50: 75.75 ± 0.41 µM
Gastric cancer SGC-7901
  IC50: 34 ± 2.5 µM
[1]
  IC50: > 80 µM
[2]
  IC50: 23.9 ± 2.54 µM
Normal human cells HSF
  IC50: 60.9 ± 1.76 µM

## CO.CO.CO.COc1cccc(C=N[C@H](Cc2c[nH]c3ccccc23)C(=O)[O-])c1[O-].[Ni+2].c1cnc2c(c1)ccc1cccnc12 [Complex 2, [Ni (Trp-o-van) (phen) (CH3OH)]•2CH3OH]
Eca-109 cells [3]
  MDC staining intensity (autophagy level): increased significantly
LC3B-II
  expression level of LC3B-II: increased
Eca-109 cells [4]
  morphological changes, AO/EB staining: nuclear shrinkage, chromatin condensation, and late apoptotic cells containing red apoptotic bodies
Eca-109 cells [5]; Eca-109, 20 μM
  percentage of apoptotic cells: 8.78%
Eca-109 cells [5]; Eca-109, 40 μM
  percentage of apoptotic cells: 29.40%
Eca-109 cells [5]; Eca-109, 24 h, NAC added 1 h before
  percentage of apoptosis cells with NAC pretreatment versus without: reduced
Eca-109 cells [6]; Eca-109
  cell cycle arrest (in words): cell cycle arrest in the G2/M phase
Eca-109 cells [6]; Eca-109, 20 μM
  percentage of cells in S phase: 33.27%
  percentage in the cell at the G2/M phase: 7.21%
  percentage in the cell at the G0/G1 phase: 59.51%
Eca-109 cells [6]; Eca-109, 40 μM
  percentage of cells in S phase: 31.32%
  percentage in the cell at the G2/M phase: 19.84%
  percentage in the cell at the G0/G1 phase: 48.84%
Breast cancer MCF-7
  IC50: 16.1 ± 1.32 µM
Eca-109 cells [7]
  intracellular ROS level (DCF fluorescence): increase the intracellular ROS level in a dosage-dependent manner
Gastric cancer SGC-7901
  IC50: 15.7 ± 1.46 µM
Eca-109 cells [8]
  apoptotic characteristics, Hoechst 33342 staining: apoptotic characteristics were also observed
Eca-109 cells [9]; Eca-109, 20 μM
  green fluorescence of the JC-1 monomers (loss of MMP): 6.86%
Eca-109 cells [9]; Eca-109, 40 μM
  green fluorescence of the JC-1 monomers (loss of MMP): 49.5%
p62
  expression level of p62: decreased
Bcl-2
  expression level of Bcl-2: significantly decreased
[1]
  IC50: 47.29 ± 0.35 µM
Bax
  expression level of Bax: significantly increased
[2]
  IC50: 18.1 ± 2.39 µM
Beclin-1
  expression level of Beclin-1: increased
Bcl-xL
  expression level of Bcl-xL: significantly decreased
Normal human cells HSF
  IC50: 23.9 ± 0.74 µM
Bad
  expression level of Bad: significantly increased

## O=C([O-])[C@@H](Cc1c[nH]c2ccccc12)N=Cc1c([O-])ccc2ccccc12.[Ni+2].c1cnc2c(c1)ccc1cccnc12 [Complex 3, [Ni (Trp-naph) (phen) (CH3OH)]]
Breast cancer MCF-7
  IC50: 23.7 ± 0.55 µM
Gastric cancer SGC-7901
  IC50: 24.3 ± 0.95 µM
[1]
  IC50: 28.1 ± 1.34 µM
[2]
  IC50: 21.9 ± 3.19 µM
Normal human cells HSF
  IC50: 32.5 ± 1.98 µM

## Cn1cnc(N)c2ncnc1-2 [Complex 3-MA, 3-methyladenine, reference compound]
Eca-109 cells [5]; Eca-109, 3-MA alone
  toxicity toward cells: nontoxicity

## O=C(O)C(Cc1c[nH]c2ccccc12)N=Cc1ccccc1O (stereo not drawn) [Complex L1]
Breast cancer MCF-7
  IC50: > 80 µM
Gastric cancer SGC-7901
  IC50: > 80 µM
[1]
  IC50: > 80 µM
[2]
  IC50: > 80 µM

## COc1cccc(C=N[C@H](Cc2c[nH]c3ccccc23)C(=O)O)c1O [Complex L2]
Breast cancer MCF-7
  IC50: > 80 µM
Gastric cancer SGC-7901
  IC50: > 80 µM
[1]
  IC50: > 80 µM
[2]
  IC50: > 80 µM

## O=C(O)[C@@H](Cc1c[nH]c2ccccc12)N=Cc1c(O)ccc2ccccc12 [Complex L3]
Breast cancer MCF-7
  IC50: > 80 µM
Gastric cancer SGC-7901
  IC50: 42.7 ± 1.13 µM
[1]
  IC50: > 80 µM
[2]
  IC50: 48.4 ± 4.99 µM

## CC(=O)[O-].CC(=O)[O-].[Ni+2] [Ni (CH3COO)2, reference compound]
Breast cancer MCF-7
  IC50: > 80 µM
Gastric cancer SGC-7901
  IC50: 41.4 ± 0.87 µM
[1]
  IC50: > 80 µM
[2]
  IC50: 43.5 ± 1.34 µM
